Read-outs that look alike come from different tables or passages of the source.
What was measured:
[1] = system: primary cultured mouse hepatocytes; assay: D-GalN-induced cytotoxicity in primary cultured mouse hepatocytes (MTT assay); settings: Hepatocyte, read-out: Inhibition (%) of D-GalN-induced cytotoxicity
Experimental: Assay for the D-GalN-induced cytotoxicity in primary cultured mouse hepatocytes was performed as described previously [33, 35, 36].

L929 cells = assay: TNF-α-induced cytotoxicity in L929 cells (MTT assay); format: cell-based; settings: Mus musculus; for inhibition at 1 µM / inhibition at 3 µM / inhibition at 10 µM / inhibition at 30 µM: read-out: Inhibition (%) of TNF-α-induced cytotoxicity
Experimental: The effects of the limonoids (1–17) on the sensitivity of hepatocytes to TNF-α were assessed by measuring TNF-α-induced decreases in the viability of L929 cells, a TNF-α-sensitive cell line, by using the MTT assay. In the absence of a test sample, the cells incubated with 1 ng/mL TNF-α for 44 h were compared with those not incubated with TNF-α.
Assay for the TNF-α-induced cytotoxicity in L929 cells was performed as described previously. Silybin was used as a reference compound [36].

[2] = system: mouse peritoneal macrophages; settings: mean ± S.E.M. (n = 4), cited from earlier work
[3] = system: LPS-activated NO production in mouse peritoneal macrophages; settings: cited from earlier work; for Inhibition (%) of LPS-activated NO production: mean ± S.E.M. (n = 4); for IC50: mouse peritoneal macrophages, read-out: IC50, inhibition of LPS-activated NO production
[4] = system: D-GalN/LPS-induced liver injury in mice; assay: D-GalN/LPS-induced liver injury in mice; format: in vivo, mouse; settings: p.o.; for Mortality: dead/total; for sALT / sAST: mean ± S.E.M.
Experimental: Male ddY mice (Kiwa Laboratory Animal Co., Ltd., Wakayama, Japan) were housed at a constant temperature of 23 ± 2°C and were fed a standard laboratory chow (MF, Oriental Yeast Co., Ltd., Tokyo, Japan). The animals were fasted for 24 h prior to the beginning of the experiment but were allowed free access to tap water. All experiments were performed with conscious mice unless otherwise noted. The experimental protocol was approved by the Experimental Animal Research Committee of Kindai University (KAPR-26-001, 1 April 2014).
The method described by Tiegs et al. was modified and used for this study. Curcumin [36] and silybin were used as reference compounds.

[5] = 100 µM, # = cytotoxic effects were observed
[6] = L929, 1 µM, 1 ng/mL TNF-α, 44 h, mean ± S.E.M. (n = 4)
[7] = L929, 3 µM, 1 ng/mL TNF-α, 44 h, mean ± S.E.M. (n = 4)
[8] = L929, 10 µM, 1 ng/mL TNF-α, 44 h, mean ± S.E.M. (n = 4)
[9] = L929, 30 µM, 1 ng/mL TNF-α, 44 h, mean ± S.E.M. (n = 4)
[10] = 10 µM, # = cytotoxic effects were observed
[11] = 30 µM, # = cytotoxic effects were observed

Compound | inhibition at 3 µM [1] [%] | inhibition at 10 µM [1] [%] | inhibition at 30 µM [1] [%] | inhibition at 100 µM [1] [%] | inhibition at 3 µM (L929 cells; L929, 44 h) [%] | inhibition at 10 µM (L929 cells; L929, 44 h) [%] | inhibition at 30 µM (L929 cells; L929, 44 h) [%] | cell viability (%) in MTT assay (values in parentheses) ([2]; 3 µM) [%] | cell viability (%) in MTT assay (values in parentheses) ([2]; 10 µM) [%] | cell viability (%) in MTT assay (values in parentheses) ([2]; 30 µM) [%] | cell viability (%) in MTT assay (values in parentheses) [2, 5] [%] | Inhibition (%) of LPS-activated NO production ([3]; 3 µM) [%] | Inhibition (%) of LPS-activated NO production ([3]; 10 µM) [%] | Inhibition (%) of LPS-activated NO production ([3]; 30 µM) [%] | Inhibition (%) of LPS-activated NO production ([3]; 100 µM) [%] | IC50 [3] [µM] | also measured
C=C1[C@@H]2CC[C@@]3(C)[C@H](c4ccoc4)OC(=O)C[C@]13O[C@H]1CC(=O)C(C)(C)[C@H](CC(=O)OC)[C@]12C [compound 7, methyl angolensate] | -2.1 ± 1.2 | -7.5 ± 0.9 | -6.3 ± 0.7 | -6.6 ± 1 | 0.6 ± 2.9 | 13.3 ± 2.6 | 24.6 ± 2.9 | 108.8 ± 11.0 | 108.8 ± 5.5 | 111.0 ± 4.5 | 78.1 ± 5.3 | 10.1 ± 4.2 | 20.0 ± 8.1 | 42.2 ± 3.5 | 24.0 ± 4.2 | > 100 | inhibition at 1 µM (L929 cells; L929, 44 h): -0.5 ± 3.5%
CC1(C)C(=O)C=C[C@@]2(C)C1C[C@@H](O)[C@]1(C)C2CC[C@@]2(C)[C@H](c3ccoc3)OC(=O)[C@H]3O[C@]321 (stereo partly drawn) [compound 4, 7-deacetoxy-7α-hydroxygedunin] | -2 ± 1.4 | -6.3 ± 0.5 | -8 ± 0.4 | -4.1 ± 0.7 | -6.5 ± 2.4 | 2.7 ± 2.3 | 36.5 ± 1.8 | 110.3 ± 5.9 | 106.6 ± 3.1 | 96.3 ± 4.6 | 2.6 ± 0.5 | 15.7 ± 4.6 | 55.7 ± 4.0 | 98.8 ± 0.4 | 100.2 ± 0.2 | 8.7 | –
CC1(C)C(=O)C=C[C@@]2(C)C1CC(=O)[C@]1(C)C2CC[C@@]2(C)[C@H](c3ccoc3)OC(=O)[C@H]3O[C@]321 (stereo partly drawn) [compound 3, 7-deacetoxy-7-oxogedunin] | -4.6 ± 0.5 | -8.2 ± 0.9 | -8.3 ± 1.1 | -8.9 ± 0.6 | 26.7 ± 4.5 | 58.6 ± 7.2 | 68.7 ± 4.8 | 100.3 ± 3.9 | 98.9 ± 3.2 | 98.8 ± 7.4 | 83.7 ± 1.2 | 7.4 ± 5.2 | 40.9 ± 4.7 | 94.0 ± 0.8 | 88.1 ± 2.1 | 12.8 | IC50 (L929 cells; L929, 44 h, read-out: IC50, inhibition of TNF-α-induced decrease in cell viability): 7.3 µM; inhibition at 1 µM (L929 cells; L929, 44 h): 5.8 ± 1.5%; sALT Inhibition (%) ([4]; 25 mg/kg): 66.3%; sAST Inhibition (%) ([4]; 25 mg/kg): 60.3%; Mortality ([4]; 25 mg/kg): 0/7; sALT ([4]; 25 mg/kg): 2899 ± 1024 Karmen Unit; sAST ([4]; 25 mg/kg): 2093 ± 742 Karmen Unit; sALT Inhibition (%) ([4]; 50 mg/kg): 70.2%; sAST Inhibition (%) ([4]; 50 mg/kg): 66.7%; Mortality ([4]; 50 mg/kg): 1/7; sALT ([4]; 50 mg/kg): 2572 ± 903 Karmen Unit; sAST ([4]; 50 mg/kg): 1759 ± 579 Karmen Unit
CC(=O)O[C@@H]1C2C(C)(C)C(=O)C=C[C@]2(C)C2CC[C@@]3(C)[C@H](c4ccoc4)OC(=O)[C@H]4O[C@]43[C@]2(C)[C@@H]1OC(C)=O (stereo partly drawn) [compound 2, 6α-acetoxygedunin] | -2.6 ± 1 | -1.9 ± 0.3 | -2.5 ± 0.7 | -1.8 ± 0.6 | – | – | – | 96.8 ± 1.2 | 102.3 ± 2.2 | 92.5 ± 1.7 | 53.6 ± 5.1 | 16.9 ± 1.7 | 67.6 ± 4.6 | 88.4 ± 3.5 | 99.6 ± 0.2 | 7.9 | inhibition at 1 µM (L929 cells; [6]): 10.9 ± 1%; inhibition at 3 µM (L929 cells; [7]): 23.2 ± 1.8%; inhibition at 10 µM (L929 cells; [8]): 36.3 ± 2.1%; inhibition at 30 µM (L929 cells; [9]): 37.3 ± 1.4%; sALT Inhibition (%) ([4]; 25 mg/kg): 63.7%; sAST Inhibition (%) ([4]; 25 mg/kg): 54.7%; Mortality ([4]; 25 mg/kg): 0/7; sALT ([4]; 25 mg/kg): 3120 ± 830 Karmen Unit; sAST ([4]; 25 mg/kg): 2384 ± 579 Karmen Unit; sALT Inhibition (%) ([4]; 50 mg/kg): 72.2%; sAST Inhibition (%) ([4]; 50 mg/kg): 67.9%; Mortality ([4]; 50 mg/kg): 0/7; sALT ([4]; 50 mg/kg): 2397 ± 873 Karmen Unit; sAST ([4]; 50 mg/kg): 1696 ± 580 Karmen Unit
O=C(/C=C/c1ccc(O)c(O)c1)OCCc1ccccc1 [CAPE, caffeic acid phenethyl ester, reference compound] | – | – | – | – | – | – | – | 95.4 ± 0.7 | – | – | 53.0 ± 1.4 | 5.9 ± 5.2 | 44.4 ± 3.2 | 86.2 ± 1.1 | 99.6 ± 0.1 | 11 | cell viability (%) in MTT assay (values in parentheses) [2, 10]: 70.0 ± 4.0%; cell viability (%) in MTT assay (values in parentheses) [2, 11]: 71.4 ± 6.0%
CC(=O)O[C@@H]1[C@H](O)C2C(C)(C)C(=O)C=C[C@]2(C)C2CC[C@@]3(C)[C@H](c4ccoc4)OC(=O)[C@H]4O[C@]43[C@@]21C (stereo partly drawn) [compound 6, 6α-hydroxygedunin] | -7.2 ± 2.4 | -9.4 ± 0.8 | -0.1 ± 0.7 | -2.8 ± 0.5 | – | – | – | 88.4 ± 3.0 | 87.6 ± 4.0 | 90.4 ± 2.6 | 82.2 ± 4.2 | 7.7 ± 7.1 | 20.7 ± 4.3 | 64.0 ± 3.1 | 97.3 ± 0.3 | 19.1 | inhibition at 1 µM (L929 cells; [6]): 8.1 ± 1.9%; inhibition at 3 µM (L929 cells; [7]): 6.7 ± 1.5%; inhibition at 10 µM (L929 cells; [8]): 12.1 ± 3%; inhibition at 30 µM (L929 cells; [9]): 28.3 ± 1.7%
[H]/N=C(/NC)NCCC[C@H](N)C(=O)O [L-NMMA, N^G-monomethyl-L-arginine, reference compound] | – | – | – | – | – | – | – | 101.1 ± 5.7 | – | – | 106.4 ± 4.6 | 1.4 ± 2.8 | 19.9 ± 2.8 | 43.0 ± 2.1 | 70.9 ± 1.6 | 36 | cell viability (%) in MTT assay (values in parentheses) [2, 10]: 100.7 ± 6.2%; cell viability (%) in MTT assay (values in parentheses) [2, 11]: 102.6 ± 4.2%

Reference: publication PMC4849045, “Hepatoprotective Limonoids from Andiroba (Carapa guianensis)” (International Journal of Molecular Sciences, 2016)
